# What was measured:
# Format in all cases: physicochemical
# [1] = 90% particle size distribution of bead mill wet-pulverized product, Mastersizer 2000 (Test Example 5); conditions: Mastersizer 2000, SDS aqueous dispersion
# Procedure: The obtained slurry was wet-pulverized with a bead mill (DYNO-MILL nanodisperser research lab type, Willy A. Bachofen AG) and then filtered to obtain an anhydrate crystal (90% particle size distribution: 2.791 μm) of the compound represented by Formula (I). The 90% particle size distribution was measured by the method described in Test Example 5.
# A 90% particle size distribution was measured according to the following method and conditions. • Measuring instrument: particle size distribution measuring apparatus (Mastersizer 2000, Malvern Panalytical Ltd) • Dispersion solvent: 0.1 g of sodium dodecyl sulfate (SDS) was dissolved in 1 L of water • Rotation speed: 2500 rpm • Ultrasound: 50% • Slurry concentration: adjusted between 10 to 20%
# [2] = Stability testing of wet-kneaded vs untreated dry-pulverized product (Test Example 7)
# Procedure: A standard sample of 5 ng/mL (corresponding to 5 ppm with respect to the sample solution) of the compound represented by Formula (ITI) was prepared by the following method. Step 1: About 20 mg of the compound represented by Formula (III) was weighed precisely, and a mixed solution of acetonitrile and water (4:1) was added to dissolve the compound to make exactly 100 mL. Step 2: One milliliter of the solution of Step 1 was accurately taken, and a mixed solution of acetonitrile and water (4:1) was added to make exactly 100 mL. Step 3: One milliliter of the solution of Step 2 was accurately taken, and a mixed solution of acetonitrile and water (4:1) was added to make exactly 100 mL. Step 4: Five milliliters of the solution of […] was accurately taken, and a mixed solution of acetonitrile and water (4:1) was added to make exactly 20 mL, thereby obtaining a standard solution. Step 1: A sample in an amount corresponding to 50 mg of the compound represented by Formula (I) or the like was added to a 50 mL volumetric flask. Step 2: To Step 1 was added 10 mL of water, and the mixture was irradiated with ultrasonic waves for 10 minutes to disintegrate the sample completely. The ultrasonic irradiation time was extended as necessary. Step 3: To Step 2 was added 25 mL of acetonitrile, and the mixture was irradiated with ultrasonic waves for 30 minutes. Step 4: After cooling, acetonitrile was added to make exactly 50 mL, a part of the liquid was centrifuged at 13000 rpm for 10 minutes, and the supernatant was used as a sample solution. An amount of the compound represented by Formula (III) was measured with a liquid chromatograph according to the following method and conditions. • Measuring instrument: LC/MS/MS (PM No. AES676) manufactured by Agilent Technologies, Inc. • Column: L-column 24.6×150 mm, 3 μm • Column temperature: constant temperature at near 35° C. • Mobile phase A: 10 mM ammonium acetate • Mobile phase B: acetonitrile for liquid chromatography • Feed of mobile phase: The mixing ratio of mobile phase A and mobile phase B was changed as shown in Table 14 to control concentration gradient. • Post runtime: 5 minutes • Flow rate: 0.5 mL/min (retention time of S202AA: about 9 minutes) • Injection amount: 5 μL • Sample cooler temperature: constant temperature at near 10° C. • Needle washing solution: acetonitrile for liquid chromatography • Ionization method: ESI • Scan type: MEM • Polarity: positive • Precursor ion: m/z=187.2 • Product ion: m/z=64.9 • Fragmentor: 120 • Collision energy: 33 • Capillary: 4000 V • Gas temperature: 350° C. • Gas flow rate: 12 L/min • Nebulizer: 40 psi • MS uptake time: 0 to 12 minutes (Calculation Formula) Content (ppm) of compound represented by Formula(III)=MS×P/100×(100−WS)/100×AT/AS×1/50×1/80000×1000000 (Mathematical formula 6) • MS: Weighing amount (mg) of compound represented by Formula (III) • P: Purity (%) of compound represented by Formula (III) • WS: Moisture (%) of compound represented by Formula (JII) • AS: Peak area of compound represented by Formula (III) obtained from standard solution • AT: Peak area of compound represented by Formula (III) obtained from sample solution (Results)
# [3] = Stability testing, study of stabilizer / blending property test (Test Example 9)
# Procedure: A blending property test was performed on the compound represented by Formula (I) or the like and an additive, and the amount of the compound represented by Formula (III) in the product stored over time was evaluated. The sample and additive used in Reference Example 4 were weighed and mixed uniformly with a mortar and a pestle. An appropriate amount of purified water was added to the mixture, and wet kneading was performed with a pestle. The resulting granulated product was sieved with a 20-mesh wire mesh, and dried at an aeration temperature of 60° C. for 30 minutes in an aeration dryer (TH-80, SATAKE CHEMICAL EQUIPMENT MFG., LTD.). Thereafter, the resulting product was further sieved with a 20-mesh wire mesh to obtain samples of Examples 10 to 14.
# The samples of Examples 10 to 14 were subjected to a stability testing under a condition of 60° C. glass bottle closed (referred to as 60° C. closed in Table 17) and 40° C. glass bottle closed (referred to as 40° C. closed in Table 17) to evaluate the content of the compound represented by Formula (III).
# The content of the compound represented by Formula (II) was confirmed in the same manner as in Test Example 7.
# [4] = 40° C. glass bottle closed, 1 month
# [5] = 40° C. glass bottle closed, 2 weeks
# [6] = 40° C. glass bottle closed, 3 months
# [7] = 60° C. glass bottle closed, 2 weeks
90% particle size distribution [1],"Content of compound represented by Formula (III), 40° C. glass bottle closed 1M [2, 4]","Content of compound represented by Formula (III), 40° C. glass bottle closed 2W [2, 5]","Content of compound represented by Formula (III), 40° C. glass bottle closed 3M [2, 6]","Content of compound represented by Formula (III), 40° C./75% RH glass bottle opened 1M ([2]; 40° C./75% RH glass bottle opened, 1 month)","Content of compound represented by Formula (III), 40° C./75% RH glass bottle opened 2W ([2]; 40° C./75% RH glass bottle opened, 2 weeks)","Content of compound represented by Formula (III), 40° C./75% RH glass bottle opened 3M ([2]; 40° C./75% RH glass bottle opened, 3 months)","Content of compound represented by Formula (III), 60° C. glass bottle closed 2W [2, 7]","Content of compound represented by Formula (III), Initial ([2]; start of test)","Amount of compound represented by Formula (III), 40° C. closed 1M [3, 4]","Amount of compound represented by Formula (III), 40° C. closed 2W [3, 5]","Amount of compound represented by Formula (III), 40° C. closed 3M [3, 6]","Amount of compound represented by Formula (III), 60° C. closed 2W [3, 7]","Amount of compound represented by Formula (III), Initial ([3]; start of test)",SMILES
2.791 μm,,,,,,,,,,,,,,C[C@@H](Cn1c(=O)[nH]/c(=N\c2ccc(Oc3ccccn3)cc2)n(Cc2ccc(Cl)cc2)c1=O)C(=O)O [Example 7]
,17.2 ppm,10.7 ppm,23.9 ppm,13.1 ppm,9.4 ppm,19.7 ppm,10.9 ppm,3.0 ppm,17.2 ppm,10.7 ppm,23.9 ppm,10.9 ppm,3.0 ppm,C[C@@H](Cn1c(=O)[nH]/c(=N\c2ccc(Oc3ccccn3)cc2)n(Cc2ccc(Cl)cc2)c1=O)C(=O)O [Reference Example 4]
